Measured values from PMC5478473 (Nature chemical biology, 2017).

Target: T1, Tet(50) (unidentified prokaryotic organism, UniProt A0A059WYP6)
T1 sequence (A0A059WYP6 1-388): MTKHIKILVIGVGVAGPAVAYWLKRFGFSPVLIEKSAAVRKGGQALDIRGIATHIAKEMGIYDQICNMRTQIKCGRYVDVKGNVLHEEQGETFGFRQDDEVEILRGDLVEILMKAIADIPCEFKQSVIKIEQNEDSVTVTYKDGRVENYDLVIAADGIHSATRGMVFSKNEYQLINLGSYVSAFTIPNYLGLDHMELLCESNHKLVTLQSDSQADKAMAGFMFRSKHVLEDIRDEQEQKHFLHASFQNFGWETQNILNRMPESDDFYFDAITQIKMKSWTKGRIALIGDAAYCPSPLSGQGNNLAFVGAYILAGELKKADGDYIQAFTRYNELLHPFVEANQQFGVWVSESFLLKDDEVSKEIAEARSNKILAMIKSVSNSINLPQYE

`CN(C)[C@@H]1C(O)=C(C(N)=O)C(=O)[C@@]2(O)C(O)=C3C(=O)c4c(O)ccc(Cl)c4[C@@](C)(O)[C@H]3C[C@@H]12` [chlortetracycline] was tested. Which Km did it give?
Its Km is 6.3 µM.
